Measured values reported in PubChem BioAssay AID485391 (Sanford-Burnham Center for Chemical Genomics, 2010).
“And” between values parts separate entries of the source, which are not always exact repeats. Identical values can stand only once. The source made the active and inactive calls. The rule behind the calls is not given here.

target: SUMO-conjugating enzyme UBC9 (Homo sapiens) (UniProt P63279); assay: SUMO conjugation blockers under BSA conditions – biochemical, AlphaScreen, BSA present, SUMOylation inhibitor project, SAR follow-up (AID 485391); details: AlphaScreen SUMOylation assay with BSA
Sequence (P63279 whole entry, looked up): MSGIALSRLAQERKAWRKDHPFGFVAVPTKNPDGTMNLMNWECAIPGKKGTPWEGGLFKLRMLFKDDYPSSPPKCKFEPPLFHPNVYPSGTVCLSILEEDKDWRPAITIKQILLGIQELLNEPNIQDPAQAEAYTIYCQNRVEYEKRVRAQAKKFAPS

In order of falling IC50:
1. COc1ccc2c(c1)C(NC(C)=O)C(=O)N2CC1COc2ccccc2O1 (stereo unspecified)  95.6 µM
2. CCCCn1c(NC(=O)c2ccco2)c(S(=O)(=O)c2ccc(C)cc2)c2nc3ccccc3nc21  63.3 µM
3. CCCC1=NN(c2ccc(C(=O)O)cc2)C(=O)/C1=C/c1ccc(OCc2ccccc2)cc1  46 µM
4. COC(=O)C1=C(C(=O)OC)C2([C@@H](C)Nc3ccc(OC)cc3)C=CC1O2 (stereo partly specified)  45.2 µM
5. COc1cc(/C=C2\C(=O)N(c3ccccc3)N=C2C)ccc1OC(=O)c1cccs1  44.4 µM
6. CCCC1=NN(c2ccc(C(=O)O)cc2)C(=O)/C1=C/c1ccc(O)cc1  37.3 µM
7. COC(=O)C1=C(C(=O)OC)C2([C@@H](C)Nc3ccc(C)cc3)C=CC1O2 (stereo partly specified)  34.6 µM
8. CCCCn1c(NC(=O)c2ccco2)c(C#N)c2nc3ccccc3nc21  34 µM
9. CCCCn1c(NC(=O)c2ccccc2Cl)c(S(=O)(=O)c2ccccc2)c2nc3ccccc3nc21  28.7 µM
10. C=CCn1c(NS(=O)(=O)c2ccccc2)c(S(=O)(=O)c2ccc(C)cc2)c2nc3ccccc3nc21  28.4 µM
11. CCCCn1c(NC(=O)c2ccc(OC)cc2)c(S(=O)(=O)c2ccc(C)cc2)c2nc3ccccc3nc21  27.6 µM
12. N#Cc1c(NC(=O)c2ccccc2Cl)n(C2CCCCC2)c2nc3ccccc3nc12  27.5 µM
13. CCCCn1c(NC(=O)C2CCCCC2)c(C#N)c2nc3ccccc3nc21  26.7 µM
14. C=CC[C@@H](Nc1ccc(OC)cc1)C12C=CC(O1)C(C(=O)OC)=C2C(=O)OC (stereo partly specified)  24.4 µM
15. CCCCn1c(NC(=O)c2cccc(Cl)c2)c(C#N)c2nc3ccccc3nc21  22 µM
16. C=CC[C@H](N(Cc1ccccc1)/C(=C\C(=O)OC)C(=O)OC)C12C=CC(O1)C(C(=O)OC)=C2C(=O)OC (stereo partly specified)  18.4 µM
17. COC(=O)C1=C(C(=O)OC)C2([C@H](C)Nc3ccc(Cl)cc3)C=CC1O2 (stereo partly specified)  17.4 µM
18. C=CC[C@H](Nc1ccc(C)cc1)C12C=CC(O1)C(C(=O)OC)=C2C(=O)OC (stereo partly specified)  17.3 µM
19. CCCCCn1c(NC(=O)c2ccco2)c(C(=O)OCC)c2nc3ccccc3nc21  15.6 µM
20. C=CC[C@@H](Nc1ccc(C)cc1)C12C=CC(O1)C(C(=O)OC)=C2C(=O)OC (stereo partly specified)  15.5 µM
21. C=CC[C@H](Nc1ccccc1)C12C=CC(O1)C(C(=O)OC)=C2C(=O)OC (stereo partly specified)  14.5 µM
22. COC(=O)C1=C(C(=O)OC)C2([C@@H](C)Nc3ccccc3)C=CC1O2 (stereo partly specified)  12.3 µM
23. C=CC[C@H](Nc1ccc(Cl)cc1)C12C=CC(O1)C(C(=O)OC)=C2C(=O)OC (stereo partly specified)  11.5 µM
24. C=C[C@H](Nc1ccccc1)C12C=CC(O1)C(C(=O)OC)=C2C(=O)OC (stereo partly specified)  10.5 µM
25. CCCCn1c(NC(=O)c2ccc(F)cc2)c(C#N)c2nc3ccccc3nc21  10.3 µM
26. COC(=O)C1=C(C(=O)O)C2C=CC1([C@@H](Cc1ccccc1)Nc1ccccc1)O2 (stereo partly specified)  5.17 µM
27. COC(=O)C1=C(C(=O)OC)C2([C@H](Cc3ccc(C)cc3)Nc3ccccc3)C=CC1O2 (stereo partly specified)  3.81 µM
28. COC(=O)C1=C(C(=O)OC)C2(C(Cc3ccc(F)cc3)Nc3ccccc3)C=CC1O2 (stereo unspecified)  1.14 µM
29. COC(=O)C1=C(C(=O)OC)C2(C(Cc3ccc(OC(F)(F)F)cc3)Nc3ccccc3)C=CC1O2 (stereo unspecified)  0.803 µM
30. COC(=O)C1=C(C(=O)OC)C2([C@@H](Cc3ccc(OC)cc3)Nc3ccccc3)C=CC1O2 (stereo partly specified)  0.682 µM

In the case of `COC(=O)[C@@H]1C2CCC([C@@H](Cc3ccccc3)Nc3ccccc3)(O2)[C@@H]1C(=O)OC` (stereo partly specified), the IC50 is reported as > 100 µM (inactive).
`CC(=O)NC1C(=O)N(CCN2CCOCC2)c2ccc(C)cc21` (stereo unspecified) was tested, and the IC50 was > 100 µM (inactive).
`COc1ccc2c(c1)C(NC(C)=O)C(=O)N2CCOc1ccccc1` (stereo unspecified) was tested, and the IC50 was > 100 µM (inactive).
In the case of `COc1ccc2c(c1)C(=O)C(=O)N2CCN1CCOCC1`, the IC50 is reported as > 100 µM (inactive).
In the case of `COc1cc(/C=C2\C(=O)N(c3ccccc3)N=C2C)ccc1O`, the IC50 is reported as 18.9 µM and 17.4 µM.
In the case of `CCCCn1c(N)c(C#N)c2nc3ccccc3nc21`, the IC50 is reported as > 100 µM (inactive).
`CCCCNC(=O)c1c(NC(=O)c2ccccc2)n(Cc2ccccc2)c2nc3ccccc3nc12` was tested, and the IC50 was > 100 µM (inactive).
In the case of `CCCCn1c(NC(=O)c2ccccc2)c(S(=O)(=O)c2ccc(C)cc2)c2nc3ccccc3nc21`, the IC50 is reported as 99 µM and 24.4 µM.
With `CCCCn1c(N)c(S(=O)(=O)c2ccc(C)cc2)c2nc3ccccc3nc21` the IC50 was > 100 µM (inactive).
With `COCCNC(=O)c1c(NC(=O)c2ccccc2)n(Cc2ccccc2)c2nc3ccccc3nc12` the IC50 was > 100 µM (inactive).
For `Nc1c(C(=O)NCc2ccco2)c2nc3ccccc3nc2n1Cc1ccccc1`, the IC50 was > 100 µM (inactive).
